Patent US7507749B2, “Antitumor agents” (priority 2001, dated 2009)

Columns and labels:
[1] = system: pancreatic ductal adenocarcinoma 03; conditions: historic; cited from earlier work
[2] = system: mammary adenocarcinoma-16/C; assay: Test F: R-enantiomers of 22b and 22c against early staged mammary adenocarcinoma-16/C; format: in vivo, C3H female mice; conditions: Cage 11, IV 7.5 mg/kg/inj days 1,5, total 15 mg/kg
Description: C3H female mice were obtained from N.C.I. (D.O.B. was […]; D.O.A. was Jan. 27, 2001). The mice weighed an average of 19.2 gm. Mice were implanted SC with mammary adenocarcinoma-16/C passage-170, a fast growing, highly invasive, highly metastatic tumor (D.O.T. was Mar. 8, 2001; Td was 1.2 days).
The R-enantiomers of both Compound 22c and Compound 22b were each suspended in 3% ethanol, 1% POE-80, 0.5% sodium bicarbonate (by volume) to effect solution, P.B.S. was then added and the pH adjusted to 7 with HCl. Adriamycin (ADRIA; lot number 20338c) was suspended in dH2O to effect solution and the pH was adjusted to 6.0. Mice were administered 0.2 ml per IV injection.

[3] = system: pancreatic ductal adenocarcinoma-03; format: in vivo; conditions: Cg 8 in table (Cage 13 in text); IV 7.5 mg/kg/inj days 6,14; total 15 mg/kg
Description: BDF1 female mice were obtained from N.C.I., CRL-Ral (D.O.B. was Feb. 26, 2001; D.O.A. was Mar. 10, 2001). The mice weighed an average of 22.5 gm. Mice were implanted SC with pancreatic ductal adenocarcinoma-03 passage 143. (D.O.T. was May 29, 2001; Td was 2.3 days).
The R-enantiomer of compound 22c was suspended in 3% ethanol, 1% POE-80, 0.25% sodium bicarbonate (by volume) to effect solution. dH2O was then added, and the pH adjusted to 7 with HCl. […] The R-enantiomer of compound 22b was suspended in 3% ethanol, 1% POE-80, 0.5% sodium-bicarbonate (by volume) to effect solution. Then, dH2O was added, and the pH adjusted to 7.5 with HCl. […] Adriamycin (source ADRIA; lot 2033BC) was suspended in dH2O to effect solution, and the pH was 6.0.
Treatment began six days following implant, at which time the tumors were palpable size (126 mg median). The duration of treatment was prolonged (18 days) in order to obtain a clear separation in efficacy between the compounds.

B16 melanoma = conditions: historic, B16 melanoma implanted subcutaneously (SC); cited from earlier work

COc1ccc2ccc(Oc3ccc(OC(C)C(=O)O)cc3)nc2c1 (stereo not drawn)
melting point: 164 to 166 °C

COc1cccc2c1C(=O)c1c(O)c3c(c(O)c1C2=O)C[C@@](O)(C(=O)CO)C[C@@H]3O[C@H]1C[C@H](N)[C@H](O)[C@H](C)O1 [Adriamycin, reference compound]
activity rating (sensitivity of the tumor to standard agents) [1]: +++ (2.0-2.8)
% Body Wt Loss at Nadir [2]: 0%
% T/C mass [2]: 0%
Day of Nadir [2]: 8 days
Drug Deaths [2]: 1/5
Growth Delay [2]: 12.0 days
Log Kill [2]: 3.6
Median Tumor Mass on Day 10 (Range) [2]: 0 mg
Median time for tumors to 1000 mg (range) [2]: 21.5 (17-27.5) days
Tumor Free day-155 [2]: 0/5
% Body Wt Loss at Nadir ([2]; listed as adriamycin): no body weight loss
% T/C mass ([2]; listed as adriamycin): 0%
Activity Rating ([2]; listed as adriamycin): ++++ (>2.8)
Drug Deaths ([2]; listed as adriamycin): one delayed drug-death
% Body Wt change between day 6 and day 24 [3]: −5.4%
% T/C mass [3]: 17.0%
Activity Rating [3]: +++ (2.0-2.8)
CR's [3]: 1/5
Drug Deaths [3]: 0/5
Growth Delay [3]: 17.5 days
Log Kill [3]: 2.3
Median Tumor Mass on Day 24 (Range) [3]: 383 mg
Median time for tumors to 1,000 mg (range) [3]: 34 days
PR's [3]: 1/5
Tumor Free day-157 [3]: 0/5
activity rating (responsiveness of the tumor to standard agents) (B16 melanoma): +or +/−
